Source: publication PMC12209990, “Effect of Cytochrome P450 3A Inhibition and Induction by Itraconazole and Rifampin on Tazemetostat Pharmacokinetics in Patients With Advanced Malignancies” (Clinical Pharmacology in Drug Development, 2025)

What was measured:
[1] = Safety (TEAEs) Part 1: tazemetostat coadministered with itraconazole; conditions: human, in vivo
Experimental: Part 1 of the study evaluated the DDI between tazemetostat and itraconazole. On the mornings of Days 1 and 15, patients received a single dose of tazemetostat 400 mg orally. On Days 3‐14, patients received tazemetostat 400 mg twice daily (morning and evening). On Days 18‐20, patients received itraconazole 200 mg orally once daily in the morning. On Days 21‐35, tazemetostat 400 mg twice daily was coadministered in the morning with a single dose of itraconazole 200 mg. On Day 36, patients received a single dose of tazemetostat 400 mg coadministered in the morning with a single dose of itraconazole 200 mg. On Days 37 and 38, patients received a single dose of itraconazole 200 mg (Figure 1A). Throughout Part 1, administration of itraconazole occurred 1 hour after a meal.
(§1) Safety was assessed by monitoring treatment‐emergent adverse events (TEAEs) and vital signs, electrocardiography, and clinical laboratory tests. TEAEs were defined as adverse events that started or worsened in severity on or after the date of the first dose of the study drug through 30 days after the last dose. Treatment‐related TEAEs were summarized by each study drug for both study parts. Adverse events were coded using the Medical Dictionary for Regulatory Activities Version 23.1 and graded per Common Terminology Criteria for Adverse Events Version 5.0.

[2] = Safety (TEAEs) Part 2: tazemetostat coadministered with rifampin; conditions: human, in vivo
Experimental: Part 2 of the study evaluated the DDI between tazemetostat and rifampin. On the mornings of Days 1 and 15, patients received a single dose of tazemetostat 800 mg orally. On Days 3‐14, patients received tazemetostat 800 mg twice daily. On Days 17‐23, patients received tazemetostat 800 mg twice daily, coadministered in the morning with a single dose of rifampin 600 mg orally. On the morning of Day 24, patients received a single dose of tazemetostat 800 mg coadministered with rifampin 600 mg. On the morning of Day 25, patients received rifampin 600 mg (Figure 1B). Throughout Part 2, administration of rifampin occurred 1 hour before a meal.
as §1

Row | SMILES | Treatment-related TEAE Grade 3 or 4, related to the named study drug, patients [1] | Treatment-related TEAEs, related to the named study drug, patients [1] | Treatment-related TESAE, related to the named study drug, patients [1] | Treatment-related TEAE Grade 3 or 4, related to the named study drug, patients [2] | Treatment-related TEAEs, related to the named study drug, patients [2] | Treatment-related TESAE, related to the named study drug, patients [2]
1 | CCC(C)n1ncn(-c2ccc(N3CCN(c4ccc(OCC5COC(Cn6cncn6)(c6ccc(Cl)cc6Cl)O5)cc4)CC3)cc2)c1=O (stereo not drawn) [Itraconazole] | 1 (4.8) n (%) | 8 (38.1) n (%) | 0 n (%) |  |  | 
2 | CO[C@H]1/C=C/O[C@@]2(C)Oc3c(C)c(O)c4c(O)c(c(/C=N/N5CCN(C)CC5)c(O)c4c3C2=O)NC(=O)/C(C)=C\C=C\[C@H](C)[C@H](O)[C@@H](C)[C@@H](O)[C@@H](C)[C@H](OC(C)=O)[C@@H]1C [Rifampin] |  |  |  | 1 (4.8) n (%) | 8 (38.1) n (%) | 0 n (%)
